Measured values taken from patent US10807958B2, “1,4-bis(3-aminopropyl)piperazine derivative and its use” (INSERM (Institut National de la Sante et de la Recherche …, priority 2015, dated 2020).

Key:
[1] = tested on: Neuroblastoma SKNSH-SY5Y cells expressing the human Tau isoform 412; test: 2D gel electrophoresis of Tau isovariants in treated cells; assay type: cell-based; details: 10 μM, vs control conditions, FIG. 2
Text: Pan-Tau and phospho-dependent Tau antibodies included Tau-Nter (M19G, 1/10 000, Sergeant et al., 1999), Tau-Cter (1/10 000, Sergeant et al., 1999, Le Freche et al., 2012), Tau-1 (1/5000, Merck Millipore), S199P (directed against the phospho-serine 199, 1/4000, Sergeant et al., 1999), Tau-Phospho S396 (directed against the phosphor-serine 396, 1/10000, Lifetechnologies), Tau-Phospho 404 (1/10 000, Lifetechnologies), 422 (clone 2H9, a homemade monoclonal antibody developed against a phospho-peptide containing the phosphorylated serine 422 residue of Tau, numbering according to the longest human brain Tau-441 isoform), AT8 (1/1000, Thermo Scientific), AT270 (1/2000, Thermo Scientific), AT100 (1/1000, Thermo Scientific). Neuron specific enolase (1/10 000), β-actin (1/5000) and β-tubulin (1/10 000) were from Sigma-Aldrich.
Human neuroblastoma cell line SKNSH-SY5Y cells expressing the human Tau isoform 412 (with the exon 2 and 10 encoding sequences) (or SY5Y-Tau46) was as previously described in Bretteville et al., 2009. […]
The effect of the compound of Formula I on Tau phosphorylation was analyzed in vitro and in vivo. […]
Expression and total phosphorylation was assessed by 1D and 2D gel electrophoresis using phospho-dependent and pan-Tau antibodies (FIGS. 1 and 2). […]

[2] = tested on: endogenous Tau (MAPT) of wild-type C57/BL6 animals; test: 2D gel electrophoresis of endogenous brain Tau in treated wild-type animals; assay type: in vivo, mouse; details: wild-type mice, 1 month; for number of Tau isovariants stained with antibody S199: 5 isovariants in non-treated condition
Text: Wild-type C57BL/6J animals of 3 months were purchased at Charles Rivers Laboratories (France) and were allow to acclimate in the animal facility for at least one week before any treatment. Thy-Tau22 transgenic colonies (C57BL/6J genetic background) were obtained by crossing heterozygous Thy-Tau22 males with C57BL/6 WT females. […] In this model, a progressive development of NFT is observed in the hippocampus and amygdala, which parallels behavioral impairments (Schindowski et al., 2006). Furthermorever, in the hippocampus, hyper- and abnormally phosphorylated Tau species accumulate within the somato-dendritic area (Schindowski et al., 2006).
For animal treatment, animals were randomly distributed and the compound of Formula I was given in the drinking water at final concentration of 0.5 or 1 mg/kg. Drinking bottles were changed once per week, volume consumption was measured along the treatment period. Food consumption and body weight were assessed. In wild-type animals the pilot study of drug treatment was performed for one month to establish the innocuousness of the treatment with the compound of Formula I. This was based on the physiological, social and behavioural assessments. Thy-Tau22 males were treated for 4 months starting at 3 month old. All protocols were approved by the local ethics committee (n^∘342012, CEEA).
After behavioral assessment, blood was collected in 1.5 mL polypropylene tubes (Eppendorf, France), mice were sacrificed by cervical dislocation to avoid any modifications instrumental to anesthesia (Lefreche et al. 2012). Hippocampi and cortices were dissected and snap frozen in 1.5 mL tubes (Eppendorf). Tissue was homogenized in Tris-HCl buffer (10 mM pH 7.4) containing 320 mM sucrose, protease inhibitors (Complete mini EDTA-free, Roche) sonicated and spun at 12,000×g for 10 min at 4° C. The supernatant was recovered, protein concentration was achieved using the BCA Protein quantification assay kit (Pierce) according to the manufacturer instruction. The supernatant was further processed for biochemical analyses or kept at −80° C. For 1D or 2D gels, the same lysis buffer was used. Thus, equal amount protein in Tris buffer were added with a solution containing 7M urea, 2M thiourée with 2% SDS and sonicated at 60 Hz 30 pulses.
Two-dimensional gel electrophoresis was performed according to the recently published procedure (Fernandez-Gomez et al., 2014). Briefly, cells were rinsed once with PBS and lysed in UTS buffer (7M urea, 2M thiourea, 2% SDS) and sonicated at 60 Hz 30 pulses. Lysate was precipitated with methanol/chloroform. 50 μg of proteins were precipitate using the chloroform/methanol procedure and the pellet was dissolved in 2D buffer [urea 7M, thiourea 2M, 4% CHAPS, and 0.6% Pharmalytes 3-10 (G&E Healthcare)]. […] The strips were layered onto a 4-12% Bis-Tris Poly-acrylamide Gel XT™ Precast Criterion (BioRad) and run with a constant tension of 100V as described for 1D SDS-PAGE. The Western blot was performed as above described for 1D SDS-PAGE and Western-blotting.
To further determine the effect of the compound of Formula I on Tau metabolism, wild-type C57/BL6 animals were treated with 0.5 and 1 mg/Kg of the compound of Formula I for 1 month and endogenous MAPT expression was assessed by 2D gel electrophoresis. Tau protein isovariants consist of three series ranging from pI 10 to 6. The major and most basic isovariants correspond to the mouse Tau isoform comprising the sole exon 10 encoding sequence. The two other series of isoforms of molecular weight of 64 and 69 kDa are isovariants of Tau isoforms which, in addition to the exon 10, contain exon 2 or exon 2+3 encoding sequences, respectively.

CC(C)CN(CCCN1CCN(CCCNc2c3c(nc4ccccc24)CCCC3)CC1)CC(C)C [compound of Formula I, N-[3-(4-{3-[Bis(2-methylpropyl)amino]propyl}piperazin-1-yl)propyl]-1,2,3,4-tetrahydroacridin-9-amine]
Tau isovariants at the neutral pI, N- and C-terminal directed pan-Tau antibodies [1]: reduction
Tau isovariants at the neutral pI, Tau396 phospho-dependent antibody (S396) [1]: reduction
number of Tau isovariants stained with antibody S199 ([2]; 0.5 mg/Kg): 3 isovariants
low molecular weight Tau catabolic products (Tau-Cter antibody) ([2]; 0.5 mg/Kg, brain 2D gel, FIG. 3): increased in number and intensity
number of Tau isovariants stained with antibody S199 ([2]; 1 mg/Kg): 2 isovariants
distribution of Tau isovariants (Tau-Cter antibody) ([2]; 0.5 and 1 mg/Kg in drinking water, brain 2D gel, FIG. 3): did not significantly change
surface of the spots stained with antibody S199 ([2]; 0.5 and 1 mg/Kg, 2D gel): reduced
overall 2D profile of the full-length Tau isoforms ([2]; after treatment 0.5 and 1 mg/Kg): preserved
